{
  "source": "patent US20060194845A1",
  "about": "“Use of ALK 5 inhibitors to modulate or inhibit myostatin activity leading to increased lean tissue accretion in animals” (Schering Corporation, priority 2004, published 2006)",
  "test_system": "rats",
  "test": "Effect of Compound A on lean and fat tissue content in rats (Molecular Resonance Imaging)",
  "type": "in vivo, rat",
  "conditions": "10 mg/kg in feed",
  "method": "Ten animals were treated with Compound A and a second group of ten animals served as a control group. Baseline values, in grams, of lean and fat tissue were assessed using […] Resonance Imaging technology for all animals.",
  "data": [
    {"smiles": "NC(=O)c1ccc(-c2nc(-c3ccc4c(c3)OCO4)c(-c3ccccn3)[nH]2)cc1", "note": "[Compound A]", "values": [
      {"measurement": "fat content vs control (observation in words)", "value": "slight trend towards decreased fat content"},
      {"measurement": "Fat (g) Δ (change in grams of tissue from baseline)", "setting": "21 days", "value": 50.6, "unit": "g"},
      {"measurement": "Lean (g) Δ (change in grams of tissue from baseline)", "setting": "21 days", "value": 93.7, "unit": "g"},
      {"measurement": "Fat (g) Δ (change in grams of tissue from baseline)", "setting": "39 days", "value": 73.6, "unit": "g"},
      {"measurement": "increase in lean tissue compared to the control group", "setting": "39 days, 137.8 vs. 115.3, p<0.0036", "value": 19.6, "unit": "%"},
      {"measurement": "Lean (g) Δ (change in grams of tissue from baseline)", "setting": "39 days, p<0.0036 vs control, 10 mg/kg", "value": 137.8, "unit": "g"}
    ]}
  ]
}
